{"source": "patent EP1844781A1", "about": "(priority 2006, dated 2007)", "format_in_all_cases": "cell-based, Wistar rats", "key": {"[1]": {"tested_on": "uterine strips"}, "[2]": {"tested_on": "uterine strips", "assay": "tissue or blood", "conditions": "for minimal effective concentration: read-out: concentration at which rhythmic contractions appeared"}, "[3]": {"tested_on": "myometrial strips", "assay": "Simultaneous measurement of contractile force and [Ca2+]i (Fura-2)", "conditions": "veratridine 60 µM; myometrial fibers loaded with Fura-2; responding strips (10 of 21)"}, "[4]": {"tested_on": "uterine strips", "assay": "Effect of inhibitors on electrically-induced uterine contractions (field electrical stimulation)"}, "[5]": {"tested_on": "uterine strips", "assay": "tissue or blood"}, "[6]": {"conditions": "cumulative concentrations 1 nM-30 µM, strips exposed for 90 min (late response) to 60 µM veratridine"}}, "note": "Read-outs that look alike come from different tables or passages of the source.", "data": [{"compound": "CCOC(=O)C1=C[C@]2(CC)CCCN3CCc4c(n1c1ccccc41)[C@@H]32", "note": "[vinpocetine]", "values": [{"measurement": "effect on veratridine-induced rhythmic contractions", "setting": "[1]; [6]", "value": "did not modify"}]}, {"compound": "O=C(NCC1CCCCN1)c1cc(OCC(F)(F)F)ccc1OCC(F)(F)F", "note": "(stereo not drawn) [flecainide]", "values": [{"measurement": "effect on veratridine-induced rhythmic contractions", "setting": "[1]; [6]", "value": "did not modify"}]}, {"compound": "CCN1C[C@]2(COC)[C@H](O)C[C@H](OC)[C@@]34[C@@H]5C[C@@]6(O)[C@H](OC(=O)c7ccccc7)[C@@H]5[C@@](OC(C)=O)([C@@H]([C@H](OC)[C@H]23)[C@@H]14)[C@@H](O)[C@@H]6OC", "note": "[aconitine]", "values": [{"measurement": "concentration at which the maximal response was reached", "setting": "[2]", "value": 100, "unit": "µM"}, {"measurement": "minimal effective concentration", "setting": "[2]", "value": "≥ 100", "unit": "µM"}]}, {"compound": "grayanotoxin", "values": [{"measurement": "concentration at which the maximal response was reached", "setting": "[2]", "value": 30, "unit": "µM"}, {"measurement": "minimal effective concentration", "setting": "[2]", "value": "≥ 20", "unit": "µM"}]}, {"compound": "COc1ccc(C(=O)O[C@H]2CC[C@@]3(C)[C@@H]4CC[C@H]5[C@]6(O)C[C@H](O)[C@@]7(O)[C@@H](CN8C[C@@H](C)CC[C@H]8[C@@]7(C)O)[C@]6(O)C[C@@]53O[C@]24O)cc1OC", "note": "[veratridine]", "values": [{"measurement": "frequency of contractions", "setting": "[3]", "value": "0.75 ± 0.09", "unit": "min⁻¹"}, {"measurement": "mean amplitude of rhythmic contractions during a 10-min period", "setting": "[3]", "value": "8.48 ± 1.20", "unit": "mN"}, {"measurement": "minimal effective concentration", "setting": "[2]; Rattus norvegicus, […], non-pregnant rats, undetermined stage of the ovarian cycle", "value": "≥ 10", "unit": "µM"}, {"measurement": "concentration at which the maximal response was reached", "setting": "[2]; measured during a 60 min application, 1.9 or 1.1 mM Ca2+-containing solution", "value": 60, "unit": "µM"}, {"measurement": "time the contractile response remained very regular and well maintained after addition", "setting": "[2]; veratridine 60 µM, continuous presence, 24 uterine strips from 12 animals", "value": "at least 12 h"}]}, {"compound": "µ-conotoxin GIIIB", "values": [{"measurement": "effect on veratridine-induced rhythmic contractions", "setting": "[1]", "value": "did not modify"}]}, {"compound": "CN1[C@@H]2CC[C@H]1C[C@@H](OC(=O)C(CO)c1ccccc1)C2", "note": "(stereo partly drawn) [Atropine, atropine]", "values": [{"measurement": "contractile area of electrically-induced uterine contractions, % of the previous contraction", "setting": "[4]", "value": "30.3 ± 8.1", "unit": "%"}, {"measurement": "contractile area of spontaneous contractions, % of the previous contractile area", "setting": "[5]", "value": "26.7 ± 2.2", "unit": "%"}, {"measurement": "effect on spontaneous uterine contractions", "setting": "[5]", "value": "abolished or almost abolished"}]}, {"compound": "C=C(C=O)C[C@@H]1C[C@H](O)[C@]2(C)O[C@@H]3C[C@@H]4O[C@@H]5C[C@]6(C)O[C@]7(C)CC[C@@H]8O[C@@H]9C[C@]%10(C)O[C@@H]%11C(C)=CC(=O)O[C@H]%11C[C@H]%10O[C@H]9C[C@@H](C)[C@H]8O[C@H]7C[C@H]6O[C@H]5C/C=C\\[C@H]4O[C@H]3C[C@H]2O1", "note": "[brevetoxin-B]", "values": [{"measurement": "concentration at which the maximal response was reached", "setting": "[2]", "value": 0.03, "unit": "µM"}]}, {"compound": "COc1cc2nc(N3CCN(C(=O)c4ccco4)CC3)nc(N)c2cc1OC", "note": "[Prazosin, prazosin]", "values": [{"measurement": "activity at 1 µM", "setting": "[4]; Rattus norvegicus, read-out: contractile area of electrically-induced uterine contractions, % of the previous contraction", "value": "92.3 ± 4", "unit": "%"}, {"measurement": "activity at 1 µM", "setting": "[5]; Rattus norvegicus, 40 min, read-out: contractile area of spontaneous contractions, % of the previous contractile area", "value": "108 ± 9.1", "unit": "%"}]}]}
